For four compounds, deltaA and inhibition results are on record in ChEMBL document CHEMBL1141437, “Lipoperoxidation and cyclooxygenase enzyme inhibitory piperidine alkaloids from Cassia spectabilis green fruits” (J Nat Prod, 2007).

Experiment [1] can be described thus: DPPH radical scavenging activity assessed as absorption change at 60 ppm by spectrophotometry. It is filed as functional.
Experiment [2] in a line: Inhibition of lipid peroxidation at 100 ppm after 21 mins. It is filed as functional.
Experiment [3] in a line: Inhibition of AAPH-induced lipid peroxidation. The experiment is classed as functional. As to conditions: dose or concentration not given here.
For experiment [4], the target named is T1, Prostaglandin G/H synthase 1 (Ovis aries) (UniProt P05979).
T1 sequence (whole entry): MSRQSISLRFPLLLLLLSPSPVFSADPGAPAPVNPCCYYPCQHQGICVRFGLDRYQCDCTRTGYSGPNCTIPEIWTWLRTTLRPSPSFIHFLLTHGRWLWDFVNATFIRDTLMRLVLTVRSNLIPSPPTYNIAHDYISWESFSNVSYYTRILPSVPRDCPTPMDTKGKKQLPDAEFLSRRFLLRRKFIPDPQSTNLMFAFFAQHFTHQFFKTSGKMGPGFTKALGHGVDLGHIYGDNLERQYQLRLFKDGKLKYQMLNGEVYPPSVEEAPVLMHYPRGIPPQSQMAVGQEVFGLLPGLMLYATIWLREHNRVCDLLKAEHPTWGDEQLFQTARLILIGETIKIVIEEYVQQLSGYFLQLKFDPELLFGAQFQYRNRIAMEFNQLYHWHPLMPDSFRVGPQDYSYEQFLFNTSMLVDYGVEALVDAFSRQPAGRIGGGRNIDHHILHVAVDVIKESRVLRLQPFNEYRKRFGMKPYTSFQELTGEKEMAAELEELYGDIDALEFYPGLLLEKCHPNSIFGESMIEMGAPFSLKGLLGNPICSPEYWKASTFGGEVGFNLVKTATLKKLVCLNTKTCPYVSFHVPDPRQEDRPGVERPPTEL
The experiment is described as follows: Inhibition of ram seminal vesicle COX1 at 100 ppm. The experiment is classed as tissue-based.

Bounds are passed on as bounds.

Consider `C[C@@H]1O[C@@H](OC[C@H]2O[C@@H](Oc3c(-c4ccc(O)c(O)c4)oc4cc(O)cc(O)c4c3=O)[C@H](O)[C@@H](O)[C@@H]2O)[C@H](O)[C@H](O)[C@H]1O`, for which, in experiment [1], the deltaA amounted to 92%.
For the compound `CC(=O)CCCCCCCCCCCC[C@H]1CC[C@@H](O)[C@@H](C)N1`, the inhibition was determined as 75% in experiment [2], 50% in experiment [3] and 40% in experiment [4]. The deltaA in experiment [1] was < 10%.
The matching figures for `CC(=O)CCCCCCCCCCCC[C@H]1CC[C@@H](OC(C)=O)[C@@H](C)N1`: 75%, 50%, 58% and < 10%.
As to `COc1cc(/C=C/C(=O)O[C@@H]2CC[C@H](CCCCCCCCCCC(C)=O)N[C@@H]2C)ccc1O`, the inhibition in experiment [3] was 50%; in experiment [4] it was 33%. Further, the deltaA in experiment [1] came out at 40%.
